{
  "source": "patent US5776505A",
  "about": "(Bayer Aktiengesellschaft, priority 1995, dated 1998)",
  "origin": "cited, not measured here",
  "settings": "cross-over study; with magnesium hydroxide",
  "data": [
    {"smiles": "CC(C)Cc1ccc(C(C)C(=O)O)cc1", "note": "(stereo not shown) [ibuprofen]", "values": [
      {"measurement": "plasma concentration as a result of addition of magnesium hydroxide", "value": "higher plasma concentration"}
    ]}
  ]
}
